Source: US11564986B2, “Approach for treatment of cancer via immunomodulation by using talabostat” (ONKOSXCEL THERAPEUTICS, LLC, priority 2015, dated 2023)

Legend:
[1] = test system: melanoma; conditions: monotherapy or combination; cited from earlier work
[2] = in vivo; cited from earlier work
[3] = test system: MC38 mouse colon cancer cell line; assay: Antitumor effect in MC38 mouse model of colon adenocarcinoma (tumor volume, tolerability; Study 1 and Study 2); type: in vivo
Excerpt: Six to seven-week-old female C57BL/6 mice were used in the studies. Mice received food and water ad libitum. The study protocol, the procedures involving the care and use of animals were reviewed and approved by the Institutional Animal Care and Use Committee (IACUC) to ensure compliance with the regulations of the Association for Assessment and Accreditation of Laboratory Animal Care (AAALAC).
MC38 mouse colon cancer cell line was provided by GenScript. The tumor cells were maintained as monolayer culture in DMEM supplemented with 10% fetal bovine serum (FBS), 1% Glutamax® and 1% Penicillin-Streptomycin at 37° C. in an atmosphere with 5% CO2. The cells were routinely subcultured every 2 days to maintain growth at exponential phase. The tumor cells growing in exponential growth phase were harvested by trypsinization, followed by centrifugation at 335×g relative centrifugal force (RCF) in a centrifuge. The supernatant was subsequently removed by aspiration. Cell pellet was resuspended in approximately 10× volume of cell culture medium and counted. The cell suspension was centrifuged again and processed as above and finally resuspended in HBSS−/− at a density of 1×10^7 cells per ml. Cell viability was determined to be 95% by trypan blue staining. Cell suspensions were implanted in the subcutaneous space of the flank of mice of female C57BL/6 mice (2.0×10^6 MC-38 cells in 0.2 mL Hanks Balanced Salt Solution). Mice were inoculated subcutaneously in the right lower flank (near the dorsal thigh region) with a single volume of 0.1 ml cell suspension containing about 1×10^6 cells.
Tumor size was measured twice per week in 2 dimensions using a caliper (recorded up to one decimal point). Tumor volume, expressed in mm^3, was calculated using the following formula, in which “a” and “b” were the long and the short diameters of a tumor, respectively. V (mm^3)=(a×b^2)/2
Animals were weighed and randomized into treatment groups when the mean tumor size was around 120 mm^3 on Day 0.
Data related to tumor volume, tumor weight, and body weight were presented as mean and the standard error of the mean (SEM). Statistical analyses were conducted using Student's t-test. P<0.05 was considered statistically significant. * and ** indicate P<0.05 and P<0.01, respectively.
The antitumor effect of single dose (qd) as well as twice daily (bid) administration of Talabostat alone and in combination with PD-1 antagonist at various dose schedules was evaluated in MC-38 (murine colon) tumor bearing mice. After the tumors were established, mice were sorted into various groups with a mean tumor volume of ˜200 mm^3. The test article and antibody were administered according to the dosing schedules described in Tables 5 and 6.

[4] = test system: CT26 tumor cells; assay: Immunophenotyping of CT26 tumor samples by quantitative PCR (NK cells, perforin, granzyme B, Tregs); type: in vivo; conditions: CT26, day 7 after first dosing; Talabostat 20 μg/mouse qd, PD-1 antagonist 5 mg/kg
Procedure: Mice (Balb/c) corresponding to 20±2 g weight, received food and water ad libitum. The study protocol, the procedures involving the care and use of animals were reviewed and approved by the Institutional Animal Care and Use Committee (IACUC) to ensure compliance with the regulations of the Association for Assessment and Accreditation of Laboratory Animal Care (AAALAC).
Tumor Model The CT26 tumor cells were cultured in RPMI1640 medium supplemented with 10% heat inactivated fetal bovine serum, 100 U/ml penicillin and 100 μg/ml streptomycin, at 37° C. in an incubator of 5% CO2. The tumor cells were routinely subcultured three times per week. The cells growing in an exponential growth phase were harvested and counted for tumor inoculation. […]
The immuno-modulatory effect of the single dose (20 μg/mouse qd) administration of Talabostat alone and in combination with PD-1 antagonist (5 mg/kg), at various dose schedules was analysed by collecting the blood and the tumor samples 7 days after the first dosing the mice.
Tumor RNA samples were extracted from the frozen tumor tissues using the Trizol reagent. […] Quantitative PCR were conducted using a master mix from Invitrogen (Cat. #4309155) on an ABI 7900HT Fast Real-Time PCR System. The results were analyzed using a Delta Delta Ct method. […]

[5] = test system: pancreatic and lung cancer; conditions: Talabostat alone or with cytokine or chemotherapeutic agents; cited from earlier work

Row | Compound | Response rate in melanoma patients [1] | Most common adverse events [2] | Mean (±SEM) tumor volume ([3]; Study 1, MC38, Day 13, Talabostat 10 μg twice daily p.o.) | Mean (±SEM) tumor volume ([3]; Study 1, MC38, Day 13, Talabostat 20 μg twice daily p.o.) | Antitumor effect compared with the vehicle control group ([3]; Study 1, MC38, single treatment groups) | Mean (±SEM) tumor volume ([3]; Study 2, MC38, Day 11, Talabostat 2.5 μg BID p.o.) | Mean (±SEM) tumor volume ([3]; Study 2, MC38, Day 11, Talabostat 5 μg BID p.o.) | Mean (±SEM) tumor volume ([3]; Study 2, MC38, Day 11, Talabostat 10 μg BID p.o.) | Mean (±SEM) tumor volume ([3]; Study 2, MC38, Day 11, Talabostat 20 μg QD p.o.) | NK cell activation, perforin (Pfr1) release in tumor (relative mRNA) [4] | Primary and secondary endpoints in clinical trials [5]
1 | Nivolumab: anti-PD-1 antibody, CAS Registry Number 946414-94-4 | 32% |  |  |  |  |  |  |  |  |  | 
2 | Ipilimumab: CTLA-4 antagonist; human monoclonal antibody, CAS No. 477202-00-9 | 11% |  |  |  |  |  |  |  |  |  | 
3 | CC(C)[C@H](N)C(=O)N1CCC[C@H]1B(O)O [Talabostat, [(2R)-I-I [(2S)-2-amino-3-methyl-1-oxobutyl]-2-pyrrolidinyl] boronic acid] |  | edema/peripheral swelling, hypotension, hypovolemia, and dizziness | 1.66 (±0.48) cc | 1.30 (±0.42) cc | significant better effect | 3.2 (±0.48) cc | 2.9 (±0.42) cc | 2.9 (±0.18) cc | 2.0 (±0.43) cc | activation in terms of release of perforin | unable to meet primary as well as secondary endpoints
